According to the NIST ThermoML archive (doi:10.1016/j.jct.2015.09.022):
Numbers after ± are expanded uncertainties.

Experiments:
[1] = xn = mol fraction of the nth substance listed; conditions: 100.7 kPa, Liquid; for viscosity: Falling or rolling sphere viscometry; for speed of sound: Frequency=3 MHz, Sing-around technique in a fixed-path interferometer; for mass density: Vibrating tube method
[2] = 100.7 kPa, Liquid; for viscosity: Falling or rolling sphere viscometry; for speed of sound: Frequency=3 MHz, Sing-around technique in a fixed-path interferometer; for mass density: Vibrating tube method

Compound CCCCOC(C)=O [butyl ethanoate] + CCCC[n+]1ccn(C)c1.O=S(=O)([N-]S(=O)(=O)C(F)(F)F)C(F)(F)F has a viscosity ([1]; 298.15 K, x2 = 0) of 0.67 ± 0.07 mPa·s, a speed of sound ([1]; 298.15 K, x2 = 0) of 1190.5 ± 1.4 m/s and a mass density ([1]; 298.15 K, x2 = 0) of 876 ± 0.2 kg/m3. It also gave a viscosity ([1]; 303.15 K, x2 = 0) of 0.64 ± 0.06 mPa·s, a speed of sound ([1]; 303.15 K, x2 = 0) of 1169.8 ± 1.4 m/s and a mass density ([1]; 303.15 K, x2 = 0) of 870.86 ± 0.2 kg/m3. For the same compound, the viscosity ([1]; 308.15 K, x2 = 0) was 0.58 ± 0.06 mPa·s, the speed of sound ([1]; 308.15 K, x2 = 0) was 1149.2 ± 1.4 m/s and the mass density ([1]; 308.15 K, x2 = 0) was 865.69 ± 0.2 kg/m3. It also gave a viscosity ([1]; 313.15 K, x2 = 0) of 0.57 ± 0.06 mPa·s, a speed of sound ([1]; 313.15 K, x2 = 0) of 1128.8 ± 1.4 m/s and a mass density ([1]; 313.15 K, x2 = 0) of 860.49 ± 0.2 kg/m3. It also gave a viscosity ([1]; 318.15 K, x2 = 0) of 0.53 ± 0.05 mPa·s, a speed of sound ([1]; 318.15 K, x2 = 0) of 1108.5 ± 1.4 m/s and a mass density ([1]; 318.15 K, x2 = 0) of 855.28 ± 0.2 kg/m3. It also gave a viscosity ([1]; 323.15 K, x2 = 0) of 0.5 ± 0.05 mPa·s, a speed of sound ([1]; 323.15 K, x2 = 0) of 1088.3 ± 1.4 m/s and a mass density ([1]; 323.15 K, x2 = 0) of 850.03 ± 0.21 kg/m3.

With CCCCOC(C)=O [butyl ethanoate] the viscosity ([2]; 298.15 K) was 0.67 ± 0.07 mPa·s, the viscosity ([2]; 303.15 K) was 0.64 ± 0.06 mPa·s and the viscosity ([2]; 308.15 K) was 0.58 ± 0.06 mPa·s. The viscosity ([2]; 313.15 K) was 0.57 ± 0.06 mPa·s, the viscosity ([2]; 318.15 K) was 0.53 ± 0.05 mPa·s and the viscosity ([2]; 323.15 K) was 0.5 ± 0.05 mPa·s.

In the case of CCCC[n+]1ccn(C)c1.O=S(=O)([N-]S(=O)(=O)C(F)(F)F)C(F)(F)F + CCCCN, the viscosity ([1]; 298.15 K, x1 = 1) is reported as 50.04 ± 3 mPa·s, the speed of sound ([1]; 298.15 K, x1 = 1) is reported as 1227.8 ± 1.5 m/s and the mass density ([1]; 298.15 K, x1 = 1) is reported as 1436.82 ± 0.62 kg/m3. The viscosity ([1]; 303.15 K, x1 = 1) was 40.72 ± 2.5 mPa·s, the speed of sound ([1]; 303.15 K, x1 = 1) was 1217.5 ± 1.5 m/s and the mass density ([1]; 303.15 K, x1 = 1) was 1431.98 ± 0.61 kg/m3. It also gave a viscosity ([1]; 308.15 K, x1 = 1) of 33.73 ± 2.1 mPa·s, a speed of sound ([1]; 308.15 K, x1 = 1) of 1205.2 ± 1.5 m/s and a mass density ([1]; 308.15 K, x1 = 1) of 1427.16 ± 0.61 kg/m3. The viscosity ([1]; 313.15 K, x1 = 1) was 28.28 ± 1.7 mPa·s, the speed of sound ([1]; 313.15 K, x1 = 1) was 1194.4 ± 1.5 m/s and the mass density ([1]; 313.15 K, x1 = 1) was 1422.37 ± 0.6 kg/m3. The viscosity ([1]; 318.15 K, x1 = 1) was 24.01 ± 1.5 mPa·s, the speed of sound ([1]; 318.15 K, x1 = 1) was 1184.5 ± 1.5 m/s and the mass density ([1]; 318.15 K, x1 = 1) was 1417.6 ± 0.6 kg/m3. It also gave a viscosity ([1]; 323.15 K, x1 = 1) of 20.32 ± 1.2 mPa·s, a speed of sound ([1]; 323.15 K, x1 = 1) of 1171.3 ± 1.5 m/s and a mass density ([1]; 323.15 K, x1 = 1) of 1412.86 ± 0.59 kg/m3.

With CCCC=O [butanal] the viscosity ([2]; 298.15 K) was 0.43 ± 0.03 mPa·s, the speed of sound ([2]; 298.15 K) was 1193.8 ± 1.4 m/s and the mass density ([2]; 298.15 K) was 796.99 ± 0.21 kg/m3. It also gave a viscosity ([2]; 303.15 K) of 0.4 ± 0.02 mPa·s, a speed of sound ([2]; 303.15 K) of 1172.7 ± 1.4 m/s and a mass density ([2]; 303.15 K) of 791.8 ± 0.21 kg/m3. It also gave a viscosity ([2]; 308.15 K) of 0.39 ± 0.02 mPa·s, a speed of sound ([2]; 308.15 K) of 1151.6 ± 1.4 m/s and a mass density ([2]; 308.15 K) of 786.41 ± 0.21 kg/m3. For the same compound, the viscosity ([2]; 313.15 K) was 0.36 ± 0.02 mPa·s, the speed of sound ([2]; 313.15 K) was 1130.6 ± 1.4 m/s and the mass density ([2]; 313.15 K) was 781.37 ± 0.21 kg/m3. The viscosity ([2]; 318.15 K) was 0.35 ± 0.02 mPa·s, the speed of sound ([2]; 318.15 K) was 1109.6 ± 1.4 m/s and the mass density ([2]; 318.15 K) was 776.39 ± 0.21 kg/m3. It also gave a viscosity ([2]; 323.15 K) of 0.32 ± 0.02 mPa·s, a speed of sound ([2]; 323.15 K) of 1088.8 ± 1.4 m/s and a mass density ([2]; 323.15 K) of 771.3 ± 0.22 kg/m3.

CCCCN [1-butanamine] gave a viscosity ([2]; 298.15 K) of 0.47 ± 0.03 mPa·s, a speed of sound ([2]; 298.15 K) of 1246.5 ± 1.3 m/s and a mass density ([2]; 298.15 K) of 733.33 ± 0.2 kg/m3. It also gave a viscosity ([2]; 303.15 K) of 0.44 ± 0.03 mPa·s, a speed of sound ([2]; 303.15 K) of 1223.9 ± 1.3 m/s and a mass density ([2]; 303.15 K) of 728.5 ± 0.2 kg/m3. It also gave a viscosity ([2]; 308.15 K) of 0.41 ± 0.03 mPa·s, a speed of sound ([2]; 308.15 K) of 1201.3 ± 1.3 m/s and a mass density ([2]; 308.15 K) of 723.67 ± 0.2 kg/m3. The viscosity ([2]; 313.15 K) was 0.39 ± 0.02 mPa·s, the speed of sound ([2]; 313.15 K) was 1178.7 ± 1.3 m/s and the mass density ([2]; 313.15 K) was 718.66 ± 0.2 kg/m3. The viscosity ([2]; 318.15 K) was 0.37 ± 0.02 mPa·s, the speed of sound ([2]; 318.15 K) was 1156.2 ± 1.3 m/s and the mass density ([2]; 318.15 K) was 714.1 ± 0.2 kg/m3. The viscosity ([2]; 323.15 K) was 0.35 ± 0.02 mPa·s, the speed of sound ([2]; 323.15 K) was 1133.5 ± 1.3 m/s and the mass density ([2]; 323.15 K) was 709.21 ± 0.2 kg/m3.

CCCC[n+]1ccn(C)c1.O=S(=O)([N-]S(=O)(=O)C(F)(F)F)C(F)(F)F gave a viscosity ([2]; 298.15 K) of 50.04 ± 5 mPa·s, a speed of sound ([2]; 298.15 K) of 1227.8 ± 1.5 m/s and a mass density ([2]; 298.15 K) of 1436.82 ± 0.62 kg/m3. It also gave a viscosity ([2]; 303.15 K) of 40.72 ± 4.1 mPa·s, a speed of sound ([2]; 303.15 K) of 1217.5 ± 1.5 m/s and a mass density ([2]; 303.15 K) of 1431.98 ± 0.61 kg/m3. It also gave a viscosity ([2]; 308.15 K) of 33.73 ± 3.4 mPa·s, a speed of sound ([2]; 308.15 K) of 1205.2 ± 1.5 m/s and a mass density ([2]; 308.15 K) of 1427.16 ± 0.61 kg/m3. The viscosity ([2]; 313.15 K) was 28.28 ± 2.8 mPa·s, the speed of sound ([2]; 313.15 K) was 1194.4 ± 1.5 m/s and the mass density ([2]; 313.15 K) was 1422.37 ± 0.6 kg/m3. It also gave a viscosity ([2]; 318.15 K) of 24.01 ± 2.4 mPa·s, a speed of sound ([2]; 318.15 K) of 1184.5 ± 1.5 m/s and a mass density ([2]; 318.15 K) of 1417.6 ± 0.6 kg/m3. It also gave a viscosity ([2]; 323.15 K) of 20.32 ± 2 mPa·s, a speed of sound ([2]; 323.15 K) of 1171.3 ± 1.5 m/s and a mass density ([2]; 323.15 K) of 1412.86 ± 0.59 kg/m3.

CCCC[n+]1ccn(C)c1.O=S(=O)([N-]S(=O)(=O)C(F)(F)F)C(F)(F)F + CCCC=O gave a viscosity ([1]; 298.15 K, x1 = 1) of 50.04 ± 3 mPa·s, a speed of sound ([1]; 298.15 K, x1 = 1) of 1227.8 ± 1.5 m/s and a mass density ([1]; 298.15 K, x1 = 1) of 1436.82 ± 0.62 kg/m3. For the same compound, the viscosity ([1]; 303.15 K, x1 = 1) was 40.72 ± 2.5 mPa·s, the speed of sound ([1]; 303.15 K, x1 = 1) was 1217.5 ± 1.5 m/s and the mass density ([1]; 303.15 K, x1 = 1) was 1431.98 ± 0.61 kg/m3. For the same compound, the viscosity ([1]; 308.15 K, x1 = 1) was 33.73 ± 2.1 mPa·s, the speed of sound ([1]; 308.15 K, x1 = 1) was 1205.2 ± 1.5 m/s and the mass density ([1]; 308.15 K, x1 = 1) was 1427.16 ± 0.61 kg/m3. The viscosity ([1]; 313.15 K, x1 = 1) was 28.28 ± 1.7 mPa·s, the speed of sound ([1]; 313.15 K, x1 = 1) was 1194.4 ± 1.5 m/s and the mass density ([1]; 313.15 K, x1 = 1) was 1422.37 ± 0.6 kg/m3. For the same compound, the viscosity ([1]; 318.15 K, x1 = 1) was 24.01 ± 1.5 mPa·s, the speed of sound ([1]; 318.15 K, x1 = 1) was 1184.5 ± 1.5 m/s and the mass density ([1]; 318.15 K, x1 = 1) was 1417.6 ± 0.6 kg/m3. For the same compound, the viscosity ([1]; 323.15 K, x1 = 1) was 20.32 ± 1.2 mPa·s, the speed of sound ([1]; 323.15 K, x1 = 1) was 1171.3 ± 1.5 m/s and the mass density ([1]; 323.15 K, x1 = 1) was 1412.86 ± 0.59 kg/m3.
